{"source": "patent US5571820A", "about": "“Heterocyclic compound” (Taisho Pharmaceutical Co., Ltd., priority 1992, dated 1996)", "key": {"[1]": {"assay": "Mouse single administration (acute toxicity)", "format": "in vivo", "conditions": "single oral administration", "excerpt": "Toxicity of the compound represented by formula (1) which is the effective ingredient of the pharmaceutical composition of the present invention was examined in terms of toxicity by mouse single administration (acute toxicity)."}, "serotonin 4 receptor": {"molecular_target": "T1, serotonin 4 receptor (Cavia porcellus, UniProt O70528)", "T1 construct": "from tissue; host or cells: ileum longitudinal muscle strips of Hartley guinea pig", "T1 sequence (O70528 whole entry)": "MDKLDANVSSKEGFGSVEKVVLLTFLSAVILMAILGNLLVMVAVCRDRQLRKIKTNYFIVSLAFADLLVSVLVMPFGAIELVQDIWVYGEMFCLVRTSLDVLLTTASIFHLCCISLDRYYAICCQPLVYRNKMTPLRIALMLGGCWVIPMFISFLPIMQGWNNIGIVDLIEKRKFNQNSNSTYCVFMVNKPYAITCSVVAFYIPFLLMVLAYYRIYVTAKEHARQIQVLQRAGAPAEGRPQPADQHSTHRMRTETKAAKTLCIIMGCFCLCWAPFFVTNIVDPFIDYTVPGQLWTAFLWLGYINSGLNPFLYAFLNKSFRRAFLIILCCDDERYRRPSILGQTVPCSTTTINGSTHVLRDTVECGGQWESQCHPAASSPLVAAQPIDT", "assay": "Serotonin 4 receptor stimulating activity: twitch responses of electrically stimulated ileum longitudinal muscle strips", "format": "cell-based, guinea pig (Hartley)", "excerpt": "Experiment 1. Serotonin 4 Receptor Stimulating Activity Compounds Tested\nTwitch responses were examined in longitudinal muscle strips of guinea pig by a modification of the method described in The Journal of Pharmacology and Experimental Therapeutics, 252, 1378, 1990.\nFrom Hartley guinea pigs, a section of ileum 25 cm in length and proximal to the ileocecal junction was removed. The longitudinal muscle strips obtained from two segments of ileum about 4 cm each in length were used for this experiment. The longitudinal muscle strips were suspended in Krebs' solution at 32° to 34° C. and bubbled with 95% O2 and 5% CO2 under a load of about 0.8 g. Twitch responses were recorded under electrical stimulation of 0.2 Hz, 1 msec pulse duration, using force displacement transducers. The longitudinal muscle strips, stimulated at supramaximal voltage, were allowed to equilibrate for about an hour. […] The test was carried out by exposing the strips to cumulative additions of agonist at least at 45-minute intervals."}, "[2]": {"test_system": "gastrointestinal tract motor action", "assay": "Activity on gastrointestinal motor in dogs (strain gauge force transducers, conscious)", "format": "in vivo, Beagle dogs of both sexes", "conditions": "for Motility index (% of value prior to administration): gastric motor action after feeding", "description": "Experiment 3. Activity on Gastrointestinal Motor in Dogs The activity was determined by a modification of the method described in Gastroenterologia Japonica, 12, 275, 1977. Beagle dogs of both sexes weighing 9 to 15 kg were anesthetized with sodium pentobarbital and strain gauge force transducers were sutured on five (5) portions, i.e., for determining antral, duodenum, jejunal, ileal and colonal motor responses. A cannula for administering a drug was mounted persistently into the jugular vein. After recovery of the surgery, motor responses at those portions on the gastrointestinal tract in both during a fasting period and after feeding were determined in the conscious dogs. The compound of the present invention was administered by dissolving the compound in 5% lactate saline aqueous solution for intravenous injection and for oral administration by suspending the compound in 5% gum arabic aqueous solution. The motor index is shown in terms of a proportion (%) of a mean value calculated for 15 minutes to a value prior to administration (0 minute). The value for 0 minute was made a mean value for 30 minutes prior to the administration. Results"}, "[3]": {"assay": "Toxicity on consecutive 14-day oral administration in rat", "format": "in vivo, male Wistar rats", "description": "Experiment 6. Toxicity on Consecutive 14-day Oral Administration in Rat\nToxicity of consecutive oral administration was investigated by oral administration of male Wistar rats of 5 weeks age, weighing 124 to 140 g and seven rats forming one group, orally received the compound of the present invention for 14 consecutive days in a daily dose of 100 mg/kg or 250 mg/kg once a day. During the course of administration, general conditions were observed and the body weight was measured. At the time when the administration was completed, hematological inspection, hematochemical inspection, urinalysis, anatomical finding, organ weight measurement and pathohistological inspection were performed."}, "intestinal transit": {"test_system": "intestinal transit", "assay": "Activity on intestinal transit in mice (carbon powder)", "format": "in vivo, male ICR mice", "conditions": "for Intestinal transit (%): moving rate calculated for control animal", "description": "Experiment 5. Activity on Intestinal Transit in Mice\nThe activity was determined by a modification of the method described in YAKURI-TO-CHIRYO, 10, 195, 1982.\nMale ICR mice weighing 20 to 30 g were used which were deprived of food for 24 hours. A suspension containing 5% carbon powder gum arabic was orally administered to the animal in a dose of 1 ml 15 minutes after subcutaneous administration or 30 minutes after oral administration, of drugs. The intestinal tract was removed 20 minutes after. The entire length of the intestinal tract and the distance of the carbon powders moved were measured, and a moving rate was calculated for control animal."}, "gastric emptying": {"test_system": "gastric emptying", "assay": "Activity on gastric emptying in rat (glass spheroids)", "format": "in vivo, male Wistar rats", "description": "Experiment 4. Activity on Gastric Emptying in Rat The activity was investigated by a modification of the method described in British Journal of Pharmacology, 91, 263, 1987. Male Wistar rats weighing 170 to 220 g were used which were deprived of food for 24 hours. Glass spheroids of 500 mg/ml were orally administered to the animal in a dose of 1 ml 30 minutes after subcutaneous administration or 60 minutes after oral administration, of drugs. The glass spheroids remained in the stomach were recovered and their weight was measured to determine gastric emptying to control motility. The compound of the present invention was suspended in physiological saline and the resulting suspension was administered."}, "[4]": {"conditions": "250 mg/kg daily, oral, 14 consecutive days"}}}
{"smiles": "CC(C)n1c(=O)c(C(=O)N[C@H]2C[C@H]3CC[C@@H](C2)N3C)cc2ccccc21", "note": "[Compound 1, endo-N-(8-methyl-8-azabicyclo[3.2.1]oct-3-yl)-1-isopropyl-2(1H)-quinolone-3-carboxamide]", "values": [{"measurement": "minimum lethal dose", "setting": "[1]", "result": "more than 125 mg/kg"}, {"measurement": "EC50", "setting": "serotonin 4 receptor", "result": 0.0214, "unit": "µM"}, {"measurement": "serotonin 4 receptor stimulating activity, comparison with Compounds 2 to 7", "setting": "serotonin 4 receptor; in words, from Table 2", "result": "much more potent serotonin 4 receptor stimulating activity than any of the other compounds"}, {"measurement": "Motility index (% of value prior to administration)", "setting": "[2]; 0.3 mg/kg intravenous, 15 min, N = 3", "result": 371.4, "unit": "%"}, {"measurement": "Motility index (% of value prior to administration)", "setting": "[2]; 0.3 mg/kg intravenous, 30 min, N = 3", "result": 322.6, "unit": "%"}, {"measurement": "Motility index (% of value prior to administration)", "setting": "[2]; 0.3 mg/kg intravenous, 45 min, N = 3, *: P < 0.05", "result": 282.3, "unit": "%"}, {"measurement": "Motility index (% of value prior to administration)", "setting": "[2]; 0.3 mg/kg intravenous, 60 min, N = 3, *: P < 0.05", "result": 261.1, "unit": "%"}, {"measurement": "Motility index (% of value prior to administration)", "setting": "[2]; 0.3 mg/kg intravenous, 75 min, N = 3, **: P < 0.01", "result": 281.9, "unit": "%"}, {"measurement": "Motility index (% of value prior to administration)", "setting": "[2]; 0.3 mg/kg intravenous, 90 min, N = 3, *: P < 0.05", "result": 262.1, "unit": "%"}, {"measurement": "Motility index (% of value prior to administration)", "setting": "[2]; 0.3 mg/kg intravenous, 105 min, N = 3, *: P < 0.05", "result": 242.9, "unit": "%"}, {"measurement": "Motility index (% of value prior to administration)", "setting": "[2]; 0.3 mg/kg intravenous, 120 min, N = 3", "result": 195.2, "unit": "%"}, {"measurement": "Motility index (% of value prior to administration)", "setting": "[2]; 1 mg/kg oral, 15 min, N = 3", "result": 116.4, "unit": "%"}, {"measurement": "Motility index (% of value prior to administration)", "setting": "[2]; 1 mg/kg oral, 30 min, N = 3", "result": 193.5, "unit": "%"}, {"measurement": "Motility index (% of value prior to administration)", "setting": "[2]; 1 mg/kg oral, 45 min, N = 3, *: P < 0.05", "result": 191.4, "unit": "%"}, {"measurement": "Motility index (% of value prior to administration)", "setting": "[2]; 1 mg/kg oral, 60 min, N = 3, **: P < 0.01", "result": 206.9, "unit": "%"}, {"measurement": "Motility index (% of value prior to administration)", "setting": "[2]; 1 mg/kg oral, 75 min, N = 3, *: P < 0.05", "result": 202.2, "unit": "%"}, {"measurement": "Motility index (% of value prior to administration)", "setting": "[2]; 1 mg/kg oral, 90 min, N = 3, *: P < 0.05", "result": 192.5, "unit": "%"}, {"measurement": "Motility index (% of value prior to administration)", "setting": "[2]; 1 mg/kg oral, 105 min, N = 3, *: P < 0.05", "result": 207.3, "unit": "%"}, {"measurement": "Motility index (% of value prior to administration)", "setting": "[2]; 1 mg/kg oral, 120 min, N = 3", "result": 194.9, "unit": "%"}, {"measurement": "Motility index (% of value prior to administration)", "setting": "[2]; 1 mg/kg oral, 180 min, N = 3", "result": 195.8, "unit": "%"}, {"measurement": "Motility index (% of value prior to administration)", "setting": "[2]; 1 mg/kg oral, 210 min, N = 3", "result": 176.2, "unit": "%"}, {"measurement": "Motility index (% of value prior to administration)", "setting": "[2]; 1 mg/kg oral, 240 min, N = 3", "result": 182.8, "unit": "%"}, {"measurement": "effect on the motor action of the gastrointestinal tract", "setting": "[2]; intravenous and oral, both during fasting period and after feeding", "result": "showed acceleration on the motor action of the gastrointestinal tract"}, {"measurement": "toxic change", "setting": "[3]; 100 mg/kg daily, oral, 14 consecutive days", "result": "no toxic change was noted"}, {"measurement": "body weight", "setting": "[3]; [4]", "result": "prevention of body weight increase was noted"}, {"measurement": "secondary changes in organs (liver, thymus, adrenogenital organ, adrenal, etc.)", "setting": "[3]; [4]", "result": "secondary changes accompanied by aggravation of general conditions were observed in the liver, thymus, adrenogenital organ, adrenal, etc."}, {"measurement": "overall toxicity", "setting": "[3]; 14-day oral, taking into account pharmacological activities", "result": "the toxicity is reasonably assumed to be weak"}, {"measurement": "effect on intestinal transit", "setting": "intestinal transit; oral and subcutaneous", "result": "accelerated the intestinal transit"}, {"measurement": "Intestinal transit (%)", "setting": "intestinal transit; p.o. 1 mg/kg, 5 cases", "result": 100.6, "unit": "%"}, {"measurement": "Intestinal transit (%)", "setting": "intestinal transit; p.o. 3 mg/kg, 5 cases", "result": 121.4, "unit": "%"}, {"measurement": "Intestinal transit (%)", "setting": "intestinal transit; p.o. 10 mg/kg, 6 cases", "result": 120.4, "unit": "%"}, {"measurement": "Intestinal transit (%)", "setting": "intestinal transit; s.c. 1 mg/kg, 5 cases", "result": 116.6, "unit": "%"}, {"measurement": "Intestinal transit (%)", "setting": "intestinal transit; s.c. 3 mg/kg, 4 cases", "result": 117.8, "unit": "%"}, {"measurement": "Intestinal transit (%)", "setting": "intestinal transit; s.c. 10 mg/kg, 6 cases, **: P < 0.01", "result": 138.3, "unit": "%"}, {"measurement": "effect on gastric emptying", "setting": "gastric emptying; oral and subcutaneous", "result": "dose-dependently accelerated gastric emptying"}, {"measurement": "Residual rate in stomach (%)", "setting": "gastric emptying; p.o. 0.03 mg/kg, 5 cases", "result": 67.3, "unit": "%"}, {"measurement": "Residual rate in stomach (%)", "setting": "gastric emptying; p.o. 0.3 mg/kg, 5 cases", "result": 64.5, "unit": "%"}, {"measurement": "Residual rate in stomach (%)", "setting": "gastric emptying; p.o. 3.0 mg/kg, 6 cases", "result": 42.0, "unit": "%"}, {"measurement": "Residual rate in stomach (%)", "setting": "gastric emptying; s.c. 0.1 mg/kg, 5 cases", "result": 51.8, "unit": "%"}, {"measurement": "Residual rate in stomach (%)", "setting": "gastric emptying; s.c. 1.0 mg/kg, 5 cases", "result": 50.3, "unit": "%"}, {"measurement": "Residual rate in stomach (%)", "setting": "gastric emptying; s.c. 10.0 mg/kg, 4 cases", "result": 36.8, "unit": "%"}]}
